One experiment relates to FoxO3a. The experiment can be described thus: FoxO3a inhibition assay (GFP-FoxO3a nuclear to cytoplasmic translocation) in U2OS GFP-FoxO3a H212R reporter cells. Particulars: Homo sapiens, 0.5 h, serum starved overnight, 30 minutes compound treatment, ratio of nuclear to cytosolic GFP intensity, AC50 = concentration that results in 50% activation or inhibition, read-out: FoxO AC50. Format: cell-based. As to the method: (§1) Phosphorylation of Akt on S473 and FoxO3a nuclear to cytoplasmic translocation were used as readouts of PI3K/Akt/mTOR pathway activation downstream of growth factor signaling.
(§2) Reporter cell line. U2OS GFP-FoxO3a H212R reporter cell line was established by transducing U2OS cells with the retroviral plasmid pLEGFP-C1 containing FoxO3a H212R transgene and selecting for G418 resistant clones.
(§3) Reporter assay. U2OS GFP-FoxO3a H212R cells were plated in 384-well plates at 4000 cells per well in 30 microliters of McCoy's 5A medium containing 10% FBS. On day 1 the cells were washed with serum free medium and serum starved overnight. On day 2 the cells were treated with different doses of the compounds for 30 minutes, fixed with 4% Paraformaldehyde for 1 hour and stained with Phospho-AKT (Ser473) antibody (Cell Signaling Technology, catalog #4060) overnight at 4° C. After nuclei staining with Hoechst 33342 (Life Technologies, catalog # H3570) the plates were imaged with InCell 2000 (GE Healthcare Bio-Sciences). FoxO3a inhibition activity is calculated as the ratio of nuclear to cytosolic GFP intensity in percent. Akt activation is measured as the total cellular intensity of Phospho-Akt antibody staining in percent. DMSO control is set as 0% activity.

For the next experiment, the system named is Akt. In words: Akt activation assay (Phospho-AKT (Ser473) antibody staining) in U2OS GFP-FoxO3a H212R reporter cells. The format is cell-based. Particulars: Homo sapiens, 0.5 h, serum starved overnight, 30 minutes compound treatment, total cellular intensity of Phospho-Akt (Ser473) antibody staining, AC50 = concentration that results in 50% activation or inhibition. As to the method: as §1, §2, §3

Turning to `Cc1cc(C(N)=O)nn1-c1ccc(Cc2ccc(-c3ccc(CN4CCN(C)CC4)cc3)cc2)cc1` [Example 3-12, 5-methyl-1-(4-((4′-((4-methylpiperazin-1-yl)methyl)-[1,1′-biphenyl]-4-yl)methyl)phenyl)-1H-pyrazole-3-carboxamide], the AC50 (in general, the concentration at which the activity in the assay is half-maximal) with FoxO3a came to 36 nM; with Akt it was 122 nM.

Turning to `Cc1cc(C(N)=O)nn1-c1ccc(C(C)(C)c2ccc(-c3ccncc3)cc2)cc1` [Example 6-3, 5-methyl-1-(4-(2-(4-(pyridin-4-yl)phenyl)propan-2-yl)phenyl)-1H-pyrazole-3-carboxamide], the figures for the AC50 in the experiment on FoxO3a and in the experiment on Akt were 149 nM and 432 nM, respectively.

For `Cc1cc(C(N)=O)nn1-c1ccc(Cc2ccc(C3=CCN(C(=O)CN(C)C)CC3)cc2)cc1` [Example 3-11, 1-(4-(4-(1-(dimethylglycyl)-1,2,3,6-tetrahydropyridin-4-yl)benzyl)phenyl)-5-methyl-1H-pyrazole-3-carboxamide], the figures for the AC50 in the experiment on FoxO3a and in the experiment on Akt were 132 nM and 504 nM, respectively.

Regarding `Cc1cc(C(N)=O)nn1-c1ccc(Cc2ccc(-c3ccc4c(c3)CCN(C)C4)cc2)cc1` [Example 3-3, 5-methyl-1-(4-(4-(2-methyl-1,2,3,4-tetrahydroisoquinolin-6-yl)benzyl)phenyl)-1H-pyrazole-3-carboxamide], the AC50 in the experiment with FoxO3a is 40 nM; with Akt it was 109 nM.

Regarding `Cc1cc(C(N)=O)nn1-c1ccc(Cc2ccc3c(c2)OCc2ccccc2-3)cc1` [Example 2, 1-(4-((6H-benzo[c]chromen-3-yl)methyl)phenyl)-5-methyl-1H-pyrazole-3-carboxamide], the AC50 was found to be 137 nM in the experiment with FoxO3a and 326 nM in the experiment on Akt.

With `Cc1nc(C(N)=O)nn1-c1ccc(Cc2ccc(-c3ccc(CN4CCN(C)CC4)nc3)cc2)cc1` [Example 34, 5-methyl-1-(4-(4-(6-((4-methylpiperazin-1-yl)methyl)pyridin-3-yl)benzyl)phenyl)-1H-1,2,4-triazole-3-carboxamide], the AC50 in the experiment with FoxO3a worked out at 300 nM; with Akt, 576 nM.

Take `Cc1cc(C(N)=O)nn1-c1ccc(C(C)(C)c2ccc(-c3ccnc(N)c3)cc2)cc1` [Example 6-5, 1-(4-(2-(4-(2-aminopyridin-4-yl)phenyl)propan-2-yl)phenyl)-5-methyl-1H-pyrazole-3-carboxamide]: the AC50 was 134 nM with FoxO3a and 415 nM with Akt.

As for `Cc1cc(C(N)=O)nn1-c1ccc(Cc2ccc(-c3ccc(CN4CCC(N(C)C)CC4)cc3)cc2)cc1` [Example 40, 1-(4-((4′-((4-(dimethylamino)piperidin-1-yl)methyl)-[1,1′-biphenyl]-4-yl)methyl)phenyl)-5-methyl-1H-pyrazole-3-carboxamide], the AC50 amounted to 32 nM in the experiment on FoxO3a and 146 nM in the experiment with Akt.

`Cc1nc(C(N)=O)nn1-c1ccc(Cc2ccc(-c3cc(C(C)(C)O)ccn3)cc2)cc1` [Example 53, 1-(4-(4-(4-(2-hydroxypropan-2-yl)pyridin-2-yl)benzyl)phenyl)-5-methyl-1H-1,2,4-triazole-3-carboxamide]: the AC50 in the experiment on FoxO3a was 2420 nM; in the experiment on Akt, 8230 nM.

As to `Cc1cc(C(N)=O)nn1-c1ccc(Cc2ccc(-c3ccc(C(=O)N4CCNCC4)nc3)cc2)cc1` [Example 26, 5-methyl-1-(4-(4-(6-(piperazine-1-carbonyl)pyridin-3-yl)benzyl)phenyl)-1H-pyrazole-3-carboxamide], the AC50 was determined as 75 nM with FoxO3a and 480 nM with Akt.

In the case of `Cc1nc(C(N)=O)nn1-c1ccc(Cc2ccc(-c3ccc(CN4CCC(C)(C)C4)cc3)cc2)cc1` [Example 38-7], the AC50 came to 15 nM with FoxO3a and 31 nM in the experiment on Akt.

On to `Cc1nc(C(N)=O)nn1-c1ccc(Cc2ccc(-c3ccc(CN4CCC(C(C)(C)O)CC4)cc3)cc2)cc1` [Example 39-3], for which the AC50 stood at 37 nM in the experiment on FoxO3a and 120 nM in the experiment with Akt.

Consider `Cc1cc(C(N)=O)nn1-c1ccc(Cc2ccc(-c3ccnc(CN4CCNCC4)c3)cc2)cc1` [Example 31-2], for which the figures for the AC50 in the experiment with FoxO3a and in the experiment on Akt were 373 nM and 1620 nM, respectively.

Turning to `Cc1nc(C(N)=O)nn1-c1ccc(C(C)(C)c2ccc(-c3ccc4nccnc4c3)cc2)cc1` [Example 13-4], the AC50 turned out to be 429 nM with FoxO3a and 1240 nM in the experiment on Akt.

Consider `Cc1nc(C(N)=O)nn1-c1ccc(Cc2ccc(-c3ccc(OC4CCN(C)CC4)cc3)cc2)cc1` [Example 47, 5-methyl-1-(4-((4′-((1-methylpiperidin-4-yl)oxy)-[1,1′-biphenyl]-4-yl)methyl)phenyl)-1H-1,2,4-triazole-3-carboxamide], for which the AC50 in the experiment on FoxO3a came out at 93 nM; in the experiment with Akt, 99 nM.

`Cc1nc(C(N)=O)nn1-c1ccc(Cc2ccc(-c3ccc(CN4CC[C@H](O)C4)cc3)cc2)cc1` [Example 39-5]: the AC50 came out at 8 nM in the experiment with FoxO3a and 22 nM in the experiment on Akt.

For the compound `Cc1cc(C(N)=O)nn1-c1ccc(Cc2ccc(-c3ccc(CN4CCCC4)nc3)cc2)cc1` [Example 5-5, 5-methyl-1-(4-(4-(6-(pyrrolidin-1-ylmethyl)pyridin-3-yl)benzyl)phenyl)-1H-pyrazole-3-carboxamide], the AC50 in the experiment with FoxO3a stood at 152 nM; in the experiment with Akt, 426 nM.

As for `Cc1cc(C(N)=O)nn1-c1ccc(Cc2ccc(C3=CCCN(C)CC3)cc2)cc1` [Example 5-7, 5-methyl-1-(4-(4-(1-methyl-2,3,6,7-tetrahydro-1H-azepin-4-yl)benzyl)phenyl)-1H-pyrazole-3-carboxamide], the results for the AC50 in the experiment on FoxO3a and in the experiment on Akt were 412 nM and 1370 nM, respectively.

Regarding `Cc1nc(C(N)=O)nn1-c1ccc(C(C)(C)c2ccc(-c3ccc(C#N)nc3)cc2)cc1` [Example 13-10], the AC50 in the experiment on FoxO3a stood at 489 nM; in the experiment on Akt, 1180 nM.

Regarding `Cc1nc(C(N)=O)nn1-c1ccc(C(C)(C)c2ccc(-c3ccc4ccncc4c3)cc2)cc1` [Example 13-5], the AC50 with FoxO3a stood at 147 nM; in the experiment on Akt, 446 nM.

Consider `Cc1cc(C(N)=O)nn1-c1ccc(Cc2ccc(-c3ccc(C(=O)NC4CNC4)cc3)cc2)cc1` [Example 30, 1-(4-((4′-(azetidin-3-ylcarbamoyl)-[1,1′-biphenyl]-4-yl)methyl)phenyl)-5-methyl-1H-pyrazole-3-carboxamide], for which the figures for the AC50 with FoxO3a and in the experiment with Akt were 237 nM and 802 nM, respectively.

Consider `Cc1nc(C(N)=O)nn1-c1ccc(Cc2ccc(N3CCC(C(C)(C)O)CC3)cc2)cc1` [Example 49, 1-(4-(4-(4-(2-hydroxypropan-2-yl)piperidin-1-yl)benzyl)phenyl)-5-methyl-1H-1,2,4-triazole-3-carboxamide], for which the AC50 is 273 nM with FoxO3a and 840 nM in the experiment on Akt.

Take `Cc1nc(C(N)=O)nn1-c1ccc(Cc2ccc(-c3ccc(C(C)(C)O)cn3)cc2)cc1` [Example 21, 1-(4-(4-(5-(2-hydroxypropan-2-yl)pyridin-2-yl)benzyl)phenyl)-5-methyl-1H-1,2,4-triazole-3-carboxamide]: the AC50 was found to be 155 nM in the experiment with FoxO3a and 723 nM in the experiment on Akt.

Regarding `Cc1nc(C(N)=O)nn1-c1ccc(C(C)(C)c2ccc(Cl)cc2)cc1` [Example 1, 1-(4-(2-(4-chlorophenyl)propan-2-yl)phenyl)-5-methyl-1H-1,2,4-triazole-3-carboxamide], the results for the AC50 with FoxO3a and in the experiment on Akt were 576 nM and 1550 nM, respectively.

In the case of `Cc1cc(C(N)=O)nn1-c1ccc(Cc2ccc(-c3ccnc(C(C)(C)O)c3)cc2)cc1` [Example 23, 1-(4-(4-(2-(2-hydroxypropan-2-yl)pyridin-4-yl)benzyl)phenyl)-5-methyl-1H-pyrazole-3-carboxamide], the AC50 turned out to be 121 nM with FoxO3a and 639 nM with Akt.

Values taken from patent US10633350B2, “Diphenyl derivatives and uses thereof” (NOVARTIS AG, priority 2017, dated 2020).
